Results on five compounds are retold here after PMC10743905, “Design, Synthesis, and In Vitro and In Vivo Bioactivity Studies of Hydrazide–Hydrazones of 2,4-Dihydroxybenzoic Acid” (International Journal of Molecular Sciences, 2023).

SMILES strings stand for the structures. “And” between values parts separate entries of the source, which are not always exact repeats. Equal entries are not always repeated.

Data set [1] relates to HEK-293. Description: MTT cytotoxicity assay, reference line. In kind it is cell-based. The following applies: Homo sapiens, HEK293, 24 h incubation, non-tumor reference line. Here is the method:
The in vitro studies were performed on the reference line HEK-293 (human embryonic kidney cells, ATCC® CRL-1573™) and […] human cancer cell lines: 769-P (adenocarcinoma, renal cells, ATCC® CRL-1933™) and HepG2 (carcinoma, hepatocellular, ATCC® HB-8065™), H1563 (adenocarcinoma, non-smallcell lung cancer, ATCC® CRL-5875™), LN-229 (glioblastoma, ATCC® CRL-2611™). Cells from the 769-P and H1563 cell lines were cultured in RPMI-1640 growth medium (PAN Biotech GmbH, Aidenbach, Bayern, Germany), cells from the HEK-293 and HepG2 cell lines were cultured in EMEM growth medium (PAN Biotech GmbH, Aidenbach, Bayern, Germany), and cells from the LN-229 cell line were cultured in DMEM growth medium (PAN Biotech GmbH, Aidenbach, Bayern, Germany) in sterile 75 cm^2 culture phalcones. Fetal bovine serum (PAN Biotech GmbH, Aidenbach, Bayern, Germany) at 10% of growth medium and antibiotics (Sigma-Aldrich, Poland) (2.5 µg/mL amphotericin B, 100 µg/mL penicillin, and 100 µg/mL streptomycin) were added to all media. Cells were cultured at 37 °C in an incubator with 5% CO2 flow until a cell layer was formed. Following this, the medium was removed, and the cells were washed with 0.25% trypsin solution with 2.21 mM EDTA (Corning Incorporated, Corning, NY, USA) in order to completely remove fetal bovine serum containing trypsin inhibitor. Finally, 6 mL of complete growth medium was added, and the cells were aspirated by gentle pipetting.
The determination of inhibitory concentration (IC50) in the HEK-293, 769-P, HepG2, H1563, and LN-229 cell cultures for selected hydrazide–hydrazones was performed using the MTT assay procedure. This test was performed according to the MTT Assay ECVAM n°17 protocol manual prepared by the European Centre for the Validation of Alternative Methods (ECVAM), an entity that aims to reduce in vivo testing in favor of in vitro and in silico methods. To 96-well sterile plates, 100 μL of cell suspensions, prepared in the appropriate medium at a concentration of 3 × 10^5 cells/mL, was added using a multichannel pipette. To achieve cell adhesion to the bottom of the plates, cells were incubated for 24 h at 37 °C with 5% CO2 flow and 90% humidity. […] After this time, all medium was removed, 100 μL of DMSO (Corning Incorporated, Corning, NY, USA) was added to each well, and absorbance measurements were performed at 550 nm using a Power Weave xs spectrophotometric microplate reader (BioTek, Winooski, VT, USA). The decrease in absorbance is equivalent to the decrease in MTT formazan production, which is due to the decrease in mitochondrial dehydrogenase activity and indicates a cytotoxic effect from the tested substances. Cell viability is expressed as a percentage as the ratio of the absorbance of test substance-treated cells to the untreated cells. […]
For orientation: Tetrazolium dyes change colour on reduction, which living cells bring about.

Data set [2] is described as follows: in vivo. The following applies: in vivo. The procedure:
Wild-type AB strain zebrafish (Danio rerio) were housed in the Experimental Medicine Centre of Medical University of Lublin (Lublin, Poland), where all the experimental procedures on embryos and larvae were carried out. The animals were kept on a recirculating water supply at 26 ± 1 °C and a 10/14 dark–light cycle, and they were fed with artemia and commercial feed. Danio rerio embryos were obtained from females between 4 and 15 months of age. […] In order to avoid genetic bias in the study, eggs were randomly collected from at least three breeding groups, rinsed, and placed in Petri dishes in the cultured medium, which for Danio rerio is E3 solution. […] In accordance with the legislation of the European Union and Poland, the experiments performed on the earliest life-stages of Danio rerio until 120 h post-fertilization (120 hpf), not defined as protected, are not subject to regulations for animal experimentation.
They address the testing of chemicals using the Fish Embryo Acute Toxicity (FET) test with the species Danio rerio.
Immediately after fertilization, eggs were placed in sterile 24-well plates and exposed for 96 h to at least five concentrations of the test chemical, ranging from 1 to 500 µM and prepared ex tempore on each day of exposure, according to the principle of one egg per well and one concentration per plate. In each plate, 20 wells were filled with the solutions of the tested substance, and 4 wells of the last column were a negative internal control with E3 medium. Each well was filled with 2 mL of solution. Positive control plates were also prepared according to this scheme with 4 mg/L of 3,4-dichloroaniline (Sigma-Aldrich, Poznań, Poland) and a negative control with E3, and a negative solvent control with 1% DMSO, which was used as a solvent for the tested substances. At four time points, microscopic observations were made every 24 h. As indicators of mortality (so-called terminal observations; when at least one of these occurs, embryonic death is declared), the following were recorded: the coagulation of embryos, a lack of somite formation, a lack of detachment of the tail from the yolk sac and a lack of a heartbeat, which was observed from the 48th hour of the study. To confirm the absence of a heartbeat, a microscopic observation was conducted at 80× magnification for one minute. Then, the solutions of the tested chemicals, to maintain their constant composition throughout the test, were replaced with fresh ones, and the plates were incubated for another 24 h in an incubator at 26 ± 1 °C. […] In addition, a quantitative and qualitative summary of the morphological and physiological abnormalities that occurred in the tested Danio rerio embryos and larvae was also made. These included yolk sac edema, pericardial edema, spinal flexure, head deformities, tail deformities, developmental delay defined as a lack of hatching success for 96 hpf larvae, and also bradycardia.
Regression analysis was performed with Excel, and the above-mentioned values were obtained from the linear type of regression analysis. […] The results obtained from the heart rate study of 96 hpf zebrafish larvae were subjected to statistical analysis using one-way analysis of variance (ANOVA) and a post hoc Bonferroni test. The significance level was taken as p < 0.05.

Usually IC50 stands for the concentration needed to halve the response being measured. High values mean lower potency, low ones higher potency. The LC50 is the concentration that kills 50% of the test population. Turning to `O=C(N/N=C/c1ccccc1Br)c1ccc(O)cc1O` [Compound 23, N-[(2-bromophenyl)methylidene]-2,4-dihydroxybenzohydrazide], in data set [1], half-maximal inhibition (IC50) required 91.8 mM. In addition, the LC50 at 96 h in data set [2] was 85.6 µM and 30.4 µg/mL.

As to `O=C(N/N=C/c1ccc([N+](=O)[O-])cc1)c1ccc(O)cc1O` [Compound 21, 2,4-dihydroxy-N-[(4-nitrophenyl)methylidene]benzohydrazide], the 50% lethal concentration (LC50) at 96 h in data set [2] was 370 µM and 110 µg/mL.

For `O=C(N/N=C/c1ccccc1F)c1ccc(O)cc1O` [Compound 24, N-[(2-fluorophenyl)methylidene]-2,4-dihydroxybenzohydrazide], in data set [1], half-maximal inhibition (IC50) was put at 0.387 mM. For the same compound, the LC50 at 96 h in data set [2] is 4.24 mM and 1160 µg/mL.

On to `O=C(N/N=C/c1cccc([N+](=O)[O-])c1)c1ccc(O)cc1O` [Compound 20, 2,4-dihydroxy-N-[(3-nitrophenyl)methylidene]benzohydrazide], for which the IC50 in data set [1] is 13.4 mM. In addition, the LC50 at 96 h in data set [2] was 34.8 mM and 10500 µg/mL.

Regarding `O=C(N/N=C/c1ccccc1Cl)c1ccc(O)cc1O` [Compound 22, N-[(2-chlorophenyl)methylidene]-2,4-dihydroxybenzohydrazide], in data set [1], the IC50 amounted to 0.315 mM. Further, in data set [2], the LC50 at 96 h was 56.6 µM and 16.4 µg/mL.
